Experimental data published in patent publication US12568972B2, “Pyridazinol compounds and derivatives, preparation methods, herbicidal compositions and applications thereof” (Qingdao Kingagroot Chemical Compound Co., Ltd., priority 2018, dated 2026).

What was measured:
Experiment in all cases: Post-emergence test, weed control effect
Format in all cases: in vivo
Conditions in all cases: after 3 weeks
Amaranthus retroflexus = test system: Amaranthus retroflexus
Summary of the method: (§1)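 Weeds sown in soil-filled pots and sprayed at 2-3 leaf stage (2-3 weeks after sowing) with compound in acetone/Tween-80/water plus 80% vegetable oil methyl ester synergist at 1500 g/ha. After 3 weeks in the greenhouse, fresh-weight growth inhibition scored on a 0-10 scale (10 = completely dead).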

Chenopodiaceae = test system: Chenopodiaceae
Summary of the method: as §1

Rorippa indica = test system: Rorippa indica
Summary of the method: as §1

Veronica polita = test system: Veronica polita
Summary of the method: as §1

CCSc1ccc(-c2nnc(C(F)(F)F)cc2O)cn1 [Compound 236]
10: weed control effect (activity level), Amaranthus retroflexus (Amaranthus retroflexus; dose 2000 g/ha) | weed control effect (activity level), Chenopodiaceae (Chenopodiaceae; dose 2000 g/ha) | weed control effect (activity level), Rorippa indica (Rorippa indica; dose 2000 g/ha) | weed control effect (activity level), Veronica polita (Veronica polita; dose 2000 g/ha)

Oc1cc(C(F)(F)F)nnc1-c1cc(F)cc(Br)c1 [Compound 49]
10: weed control effect (activity level), Amaranthus retroflexus (Amaranthus retroflexus; dose 1000 g/ha) | weed control effect (activity level), Chenopodiaceae (Chenopodiaceae; dose 1000 g/ha) | weed control effect (activity level), Rorippa indica (Rorippa indica; dose 1000 g/ha) | weed control effect (activity level), Veronica polita (Veronica polita; dose 1000 g/ha)

Oc1cc(C(F)(F)F)nnc1-c1ccc(C2CC2Cl)cc1 (centres unmarked) [Compound 111]
10: weed control effect (activity level), Amaranthus retroflexus (Amaranthus retroflexus; dose 1000 g/ha) | weed control effect (activity level), Chenopodiaceae (Chenopodiaceae; dose 1000 g/ha) | weed control effect (activity level), Rorippa indica (Rorippa indica; dose 1000 g/ha) | weed control effect (activity level), Veronica polita (Veronica polita; dose 1000 g/ha)

Oc1cc(C(F)(F)F)nnc1-c1ccc(Cl)nc1Cl [Compound 991]
10: weed control effect (activity level), Amaranthus retroflexus (Amaranthus retroflexus; Dose 3000 g/ha) | weed control effect (activity level), Chenopodiaceae (Chenopodiaceae; Dose 3000 g/ha) | weed control effect (activity level), Rorippa indica (Rorippa indica; Dose 3000 g/ha) | weed control effect (activity level), Veronica polita (Veronica polita; Dose 3000 g/ha)

Oc1cc(C(F)(F)F)nnc1-c1ccc(C(F)(F)F)cc1 [Compound 746]
10: weed control effect (activity level), Amaranthus retroflexus (Amaranthus retroflexus; Dose 3000 g/ha) | weed control effect (activity level), Chenopodiaceae (Chenopodiaceae; Dose 3000 g/ha) | weed control effect (activity level), Rorippa indica (Rorippa indica; Dose 3000 g/ha) | weed control effect (activity level), Veronica polita (Veronica polita; Dose 3000 g/ha)

CCCCCCOC(=O)Oc1cc(C(F)(F)F)nnc1-c1ccc(Cl)c([N+](=O)[O-])c1 [Compound 1-35]
10: weed control effect, Amaranthus retroflexus (activity level) (Amaranthus retroflexus; Dose 3000 g/ha) | weed control effect, Chenopodiaceae (activity level) (Chenopodiaceae; Dose 3000 g/ha) | weed control effect, Rorippa indica (activity level) (Rorippa indica; Dose 3000 g/ha) | weed control effect, Veronica polita (activity level) (Veronica polita; Dose 3000 g/ha)

Oc1cc(C(F)(F)F)nnc1-c1ccccc1Cl [Compound 30]
10: weed control effect (activity level), Amaranthus retroflexus (Amaranthus retroflexus; dose 1000 g/ha) | weed control effect (activity level), Chenopodiaceae (Chenopodiaceae; dose 1000 g/ha) | weed control effect (activity level), Rorippa indica (Rorippa indica; dose 1000 g/ha) | weed control effect (activity level), Veronica polita (Veronica polita; dose 1000 g/ha)

CCc1cccc(-c2nnc(C(F)(F)F)cc2OS(=O)(=O)CS(C)(=O)=O)c1 [Compound 1-123]
10: weed control effect, Amaranthus retroflexus (activity level) (Amaranthus retroflexus; Dose 3000 g/ha) | weed control effect, Chenopodiaceae (activity level) (Chenopodiaceae; Dose 3000 g/ha) | weed control effect, Rorippa indica (activity level) (Rorippa indica; Dose 3000 g/ha) | weed control effect, Veronica polita (activity level) (Veronica polita; Dose 3000 g/ha)

CSc1ccc(-c2nnc(C(F)(F)F)cc2OC(=O)SCCc2ccccc2)cc1 [Compound 1-103]
10: weed control effect, Amaranthus retroflexus (activity level) (Amaranthus retroflexus; Dose 3000 g/ha) | weed control effect, Chenopodiaceae (activity level) (Chenopodiaceae; Dose 3000 g/ha) | weed control effect, Rorippa indica (activity level) (Rorippa indica; Dose 3000 g/ha) | weed control effect, Veronica polita (activity level) (Veronica polita; Dose 3000 g/ha)

CCCCCCCCSC(=O)Oc1cc(C(F)(F)F)nnc1-c1ccc(F)cc1 [Compound 1-54]
10: weed control effect, Amaranthus retroflexus (activity level) (Amaranthus retroflexus; Dose 3000 g/ha) | weed control effect, Chenopodiaceae (activity level) (Chenopodiaceae; Dose 3000 g/ha) | weed control effect, Rorippa indica (activity level) (Rorippa indica; Dose 3000 g/ha) | weed control effect, Veronica polita (activity level) (Veronica polita; Dose 3000 g/ha)

Cc1ccc(-c2nnc(C(F)(F)F)cc2O)o1 [Compound 414]
10: weed control effect (activity level), Amaranthus retroflexus (Amaranthus retroflexus; Dose 3000 g/ha) | weed control effect (activity level), Chenopodiaceae (Chenopodiaceae; Dose 3000 g/ha) | weed control effect (activity level), Rorippa indica (Rorippa indica; Dose 3000 g/ha) | weed control effect (activity level), Veronica polita (Veronica polita; Dose 3000 g/ha)

Oc1cc(C(F)(F)F)nnc1-c1cc(Cl)c(-c2ccccc2)c(Cl)c1 [Compound 168]
10: weed control effect (activity level), Amaranthus retroflexus (Amaranthus retroflexus; dose 2000 g/ha) | weed control effect (activity level), Chenopodiaceae (Chenopodiaceae; dose 2000 g/ha) | weed control effect (activity level), Rorippa indica (Rorippa indica; dose 2000 g/ha) | weed control effect (activity level), Veronica polita (Veronica polita; dose 2000 g/ha)

Oc1cc(C(F)(F)F)nnc1-c1cc(F)cc(/C=C/Cl)c1 [Compound 169]
10: weed control effect (activity level), Amaranthus retroflexus (Amaranthus retroflexus; dose 2000 g/ha) | weed control effect (activity level), Chenopodiaceae (Chenopodiaceae; dose 2000 g/ha) | weed control effect (activity level), Rorippa indica (Rorippa indica; dose 2000 g/ha) | weed control effect (activity level), Veronica polita (Veronica polita; dose 2000 g/ha)

CCS(=O)(=O)Oc1cc(C(F)(F)F)nnc1-c1ccc(F)cc1 [Compound 1-121]
10: weed control effect, Amaranthus retroflexus (activity level) (Amaranthus retroflexus; Dose 3000 g/ha) | weed control effect, Chenopodiaceae (activity level) (Chenopodiaceae; Dose 3000 g/ha) | weed control effect, Rorippa indica (activity level) (Rorippa indica; Dose 3000 g/ha) | weed control effect, Veronica polita (activity level) (Veronica polita; Dose 3000 g/ha)

Fc1ccc(-c2nnc(C(F)(F)F)cc2OCc2ccccc2)cc1F [Compound 1-210]
10: weed control effect, Amaranthus retroflexus (activity level) (Amaranthus retroflexus; Dose 3000 g/ha) | weed control effect, Chenopodiaceae (activity level) (Chenopodiaceae; Dose 3000 g/ha) | weed control effect, Rorippa indica (activity level) (Rorippa indica; Dose 3000 g/ha) | weed control effect, Veronica polita (activity level) (Veronica polita; Dose 3000 g/ha)

CCCCCCCSC(=O)Oc1cc(C(F)(F)F)nnc1-c1ccc(Cl)c(Cl)c1 [Compound 1-53]
10: weed control effect, Amaranthus retroflexus (activity level) (Amaranthus retroflexus; Dose 3000 g/ha) | weed control effect, Chenopodiaceae (activity level) (Chenopodiaceae; Dose 3000 g/ha) | weed control effect, Rorippa indica (activity level) (Rorippa indica; Dose 3000 g/ha) | weed control effect, Veronica polita (activity level) (Veronica polita; Dose 3000 g/ha)

Oc1cc(C(F)(F)F)nnc1-c1cc(C(F)(F)F)ccc1F [Compound 50]
10: weed control effect (activity level), Amaranthus retroflexus (Amaranthus retroflexus; dose 1000 g/ha) | weed control effect (activity level), Chenopodiaceae (Chenopodiaceae; dose 1000 g/ha) | weed control effect (activity level), Rorippa indica (Rorippa indica; dose 1000 g/ha) | weed control effect (activity level), Veronica polita (Veronica polita; dose 1000 g/ha)
